Results on 1 molecule are retold here after patent publication US11633420B2, “Method of treating leukemia” (Epizyme, Inc., priority 2012, dated 2023).

SMILES strings stand for the structures. pIC50: −log10 of the molar value.

For one assay, the system named is KOPN-8 (MLL-ENL) cells. The experiment in a line: In vitro anti-proliferative assay, KOPN-8. It is filed as cell-based, human. The note with it: up to 14 days. As to the method: (§1) In Vitro Anti-Proliferative Assay. The potency and selectivity of the anti-proliferative activity of the compounds of the present invention were assessed using a panel of MLL-rearranged and non-MLL-rearranged human leukemia cell lines. The MLL-rearranged panel included cell lines derived from ALL, AML and biphenotypic leukemias harboring MLL-AF4, MLL-AF9 or MLL-ENL fusions. These cell lines recruit DOT1L.
(§2) Exponentially growing cells were plated, in triplicate, in 96-well plates at a density of 3×10^4 cells/well in a final volume of 150 μl. […] Anti-proliferative activity was determined by cell viability measurements every 3-4 days for up to 14 days.

Another assay has as its system MV4-11 xenograft tumors. Nature of the assay: In vivo anti-proliferative assay, mouse xenograft model of MLL-rearranged leukemia. The note with it: 21 days. As to the method: In Vivo Anti-Proliferative Assay. The in vivo anti-tumor activity of the compounds of the present invention were assessed in a mouse xenograft model of MLL-rearranged leukemia. Four groups of 20 (Groups 1, 3, 4 and 5), and one group of 8 (Group 2) female nude mice (average weight of 0.023 kg) bearing MV4-11 xenograft tumors of sizes ranging from 80-120 mm^3 were implanted subcutaneously with minipumps (Alzet Model 2001). Group 1 received vehicle only from the pump. Group 2 received vehicle only from the pump plus ip injections tid (8 hours apart) of vehicle. […] Pumps were designed to last for 7 days and were exchanged twice to give total infusion duration of 21 days exposure. […] Blood samples were taken from Group 3 on days 7 and 14 at the following time points (3 animals per time point): 5 minutes pre-ip dose, and 15 min, 30 min, 1, 2, and 4 hours post ip dose. On day 21 three hours after the last ip injection, a single blood sample was taken from Group 3. Tumor size was measured every 4 days. After 21 days the study was terminated, and mean TGI calculated.

In the next assay the test system is MOLM-13 (MLL-AF9) cells. The experiment in a line: In vitro anti-proliferative assay, MOLM-13. Type of assay: cell-based, human. The following applies: up to 14 days. The method, then: as §1, §2
The test system of a further assay is EOL-1 cells (MLL-PTD). The experiment in a line: In vitro anti-proliferative assay, EOL-1. It is filed as cell-based. The following applies: Homo sapiens, EOL1, 336 h; EOL-1 (MLL-PTD), up to 14 days. The method, then: as §1, §2
Assay [1] has as its system Jurkat cells (non-MLL-rearranged). Nature of the assay: In vitro anti-proliferative assay, Jurkat. Type of assay: cell-based, human. The following applies: up to 14 days. The method, then: as §1, §2
The test system of assay [2] is HL-60 cells (non-MLL-rearranged). The experiment in a line: In vitro anti-proliferative assay, HL-60. Type of assay: cell-based, human. The note with it: HL-60, up to 14 days. The method, then: as §1, §2
In the next assay the test system is MV4;11 (MLL-AF4) cells. The experiment in a line: In vitro anti-proliferative assay, MV4;11. It is filed as cell-based, human. The note with it: up to 14 days. As to the method:
as §1, §2

As for `CC(C)N(C[C@H]1O[C@@H](n2cnc3c(N)ncnc32)[C@H](O)[C@@H]1O)[C@H]1C[C@@H](CCc2nc3cc(C(C)(C)C)ccc3[nH]2)C1` [Compound 2, (2R,3R,4S,5R)-2-(6-amino-9H-purin-9-yl)-5-((((1r,3S)-3-(2-(5-(tert-butyl)-1H-benzo[d]imidazol-2-yl)ethyl)cyclobutyl)(isopropyl)amino)methyl)tetrahydrofuran-3,4-diol], the “anti-proliferative activity (IC50)” value with KOPN-8 (MLL-ENL) cells, in the assay with MOLM-13 (MLL-AF9) cells and with MV4;11 (MLL-AF4) cells was “potent nanomolar anti-proliferative activity” each time. The “TGI compared to controls” value in the assay on MV4-11 xenograft tumors (56 mg/kg/day minipump, non-statistically significant) is on record as 43%; in the assay with MV4-11 xenograft tumors (112 mg/kg/day minipump, non-statistically significant), 38%; in the assay on MV4-11 xenograft tumors (Group 3: 112 mg/kg/day minipump plus ip 20 mg/kg tid (172 mg/kg/day), statistically significant), more than 70%. The pIC50 with EOL-1 cells (MLL-PTD) was 7.96. The anti-proliferative activity result in assay [1] and in assay [2] was “no activity” in each case.
